Experiment [1] relates to Reverse Passive Arthus Reaction in Rats. The experiment can be described thus: Reverse Passive Arthus Reaction in Rats, vascular permeability (VP). In kind it is in vivo. The note with it: rat, IV, % inhibition at 3 mg single dose, 4 hours. The source says:
(§1) 3. Reverse Passive Arthus Reaction in Rats
(§2) The reverse passive Arthus reaction in rats is a modification of the method by Mulligan et al., as described in J. Clin. Invest., (1991 ) 88:1396-1406. This is an experimental model in which the interaction of antigen-antibody complexes and complement leads to a severe vasculitis that is associated with edema, induration, erythema and hemorrhage. The interaction between the antigen-antibody complexes and complement leads to a localized influx of neutrophils. These neutrophils release a variety of mediators that are associated with tissue damage and vascular permeability. The localized inflammatory reaction is measured using different techniques i.e., vascular permeability and neutrophil influx which is evaluated both biochemically and microscopically.
(§3) Male Sprague Dawley specific pathogen-free rats with jugular vein cannulae (280-320 g, Hill Top Labs, Pa.) are used in these studies. Animals are acclimated for at least 1 day and individually housed in stainless steel cages. The dorsal region of the rats is closely clipped 2 days prior to the experiments and divided into 4 sites on each side of the midline. Prior to all injections the rats are sedated with 0.4 ml per 300 gm rat of ketamine/rompun [1000 mg (10 ml) of ketamine HCL is mixed with 40 mg (2.0 ml) Rompun] administered IP and or inhalation anesthesia with metafane (methoxyflurane).
(§4) Bovin Serum Albumin (BSA) and rabbit polyclonal IgG rich in anti-BSA are purchased from Sigma Chemical Co. (St. Louis, Mo.). Radiolabelled ^125 I-BSA (spAct 1-5 μCi/μg) is purchased from Dupont NEN (Boston, Mass.).
(§5) Each rat is administered intradermal (ID) injection of (0.4 mg, 0.6 mg and 0.8 mg) anti-BSA in a volume of 100 μl per injection in normal saline. The ID injections are randomized near the mid dorsal region on both sides of the back bone. Immediately after the ID injections of the anti-BSA, the rats are administered intravenous (IV) injections of BSA (10 mg in 1.0 ml) in normal saline containing ^125 I labeled BSA (1 μCi/ml BSA or 5.0 μCi/kg body wt) for quantification of dermal vascular injury. Anti-inflammatory agents such as inhibitors of adhesion molecules of the present invention are administered IV at a single dose of 3 mg immediately after BSA. Four (4) hours after the IV injection of BSA, the rats are anesthetized with metafane and 2 to 3 ml of blood is withdrawn via the cannula into an anticoagulant containing (EDTA or Heparin) tube and plasma separated and saved for neutrophil and albumin quantitation. The rats are killed and the skin surrounding the injection site (15 mm diameter) is punched out and weighed. The skin samples and a fixed volume of plasma (0.1 to 1.0 ml) is analyzed in a gamma-counter for ^125 I content. Skin samples from the contralateral side are processed and analyzed for myeloperoxidase activity (MPO) as a measure of neutrophil accumulation. As needed, samples are also processed for histological evaluation of the reacted sites.
Vascular Permeability (VP)
The calculation of the plasma protein exudation into skin is made by determining the radioactivity in the tissue and relating this to the level of radioactive albumin in the blood at the time of sacrifice. […] [formula]
Percent inhibition of the test compound at 3 mg was determined as follows: [formula] Myeloperoxidase (MPO)

For experiment [2] the test system is unchanged. As to the kind of experiment: Reverse Passive Arthus Reaction in Rats, myeloperoxidase (MPO). In kind it is in vivo. The note with it: rat, IV, % inhibition at 3 mg single dose, 4 hours.
Excerpt: as §1, §2, §3, §4, §5
MPO is located in the azurephil granules of polymorphonuclear leukocytes (PMN). Because of its abundance in these cells (5% dry weight), this enzyme is used as a marker for tissue neutrophil content. For tissue MPO content, the method of Bradley, et al., was used as described in J. Invest. […] Change in absorbance at 450 nm was measured at room temperature using a Vmax kinetic plate reader (Molecular Devices, Pale Alto, Calif., USA). Percent inhibition of the test compound at 3 mg dose was determined as follows: [formula] […]

SMILES strings stand for the structures.

These results are taken from patent US5565433A, “Sulfated β-glycolipid derivatives as cell adhesion inhibitors” (Bristol-Myers Squibb Company, priority 1996, dated 1996).

Consider `CCCCCCCC/C=C\CCCCCCCCCCCCCC(=O)N[C@@H](CO[C@@H]1O[C@H](COS(=O)(=O)O)[C@H](OC(=O)c2ccccc2)[C@H](OC(=O)c2ccccc2)[C@H]1OS(=O)(=O)O)[C@@H](/C=C/CCCCCCCCCCCCC)OC(=O)c1ccccc1` [Example 7, (2S,3R,4E)-3-Benzoyloxy-1-[3,4-di-O-benzoyl-2,6-di-O-(sodiumoxysulfonyl)-β-D-galactopyranosyloxy]-2-(cis-15-tetracosenoylamino)-4-octadecene], for which, in experiment [1], the “RPA VP % Inhib.” value came out at 56%. Also, the “RPA MPO % Inhib.” value in experiment [2] came to 46%.

In the case of `CCCCCCCCCCCCC/C=C/[C@@H](O)[C@H](CO[C@@H]1O[C@H](COS(=O)(=O)O)[C@H](OS(=O)(=O)O)[C@H](O)[C@H]1O)NC(=O)CCCCCCCCCCCCCCC` [Example 2, (2S,3R,4E)-3-Hydroxy-2-hexadecanoylamino-1-[4,6-di-O-(sodiumoxysulfonyl)-β-D-galactopyranosyloxy]-4-octadecene], in experiment [1], the “RPA VP % Inhib.” value is 63%. Also, the “RPA MPO % Inhib.” value in experiment [2] is reported as 33.5%.
